Several values for one entry are separate records, joined by “and”; a condition that tells them apart may be missing. Equal values may be shown once. Read-outs that look alike come from different tables or passages of the source. Square brackets hold non-standard residues; d marks the D form. Peptide text beside a SMILES is read from it. * marks the point of attachment. AMC = Cc1cc(=O)oc2cc(N*)ccc12; Nle = CCCC[C@H](N)C(=O)O; Bz = O=C(c1ccccc1)*
Columns and labels:
[1] = test system: NS2B/NS3 protease of DEN2; conditions: cited from earlier work
[2] = target: T1, JEV NS2B(H)-NS3pro (Japanese encephalitis virus, UniProt P32886, DEL1469-1493); assay: Enzymatic activity assay with fluorogenic peptide substrates (Michaelis-Menten kinetics); format: biochemical; conditions: JEV protease
T1 construct: PCR-amplify the NS2B(H) region (amino acids 51–95 and 121–131); The N-terminal one-third (180 residues) of NS3 represents the protease domain NS3(pro); made in house; host or cells: E. coli (the text names both C41 and BL21), vector pTrcHisA

[3] = test system: NS2B/NS3 protease of YFV; conditions: cited from earlier work
[4] = test system: JEV NS2B(H)-NS3pro; conditions: 25 mM NaCl; 100 µM Pyr-RTKR-amc, 0.5 µM enzyme, 50 mM Tris-HCl pH 9.5, 37°C
[5] = test system: dengue virus NS3 protease; conditions: 100 mM NaCl; cited from earlier work
[6] = test system: N2B-NS3 protease of WNV; conditions: cited from earlier work
[7] = target: DEN2 NS3 protease; conditions: cited from earlier work
[8] = test system: MVEV NS2B-NS3; conditions: cited from earlier work
[9] = target: JEV NS2B(H)-NS3pro; assay: Enzyme inhibition by aprotinin, Pyr-RTKR-amc substrate; format: biochemical, Japanese encephalitis virus; conditions: 0.5 µM enzyme, 50 mM Tris-HCl pH 9.5, 20% glycerol, aprotinin 0-20 µM, 37°C 30 minutes pre-incubation, 10 µM Pyr-RTKR-amc, triplicate
[10] = target: WNV NS3 protease; conditions: cited from earlier work

Compound: Cc1cc(=O)oc2cc(NC(=O)[C@H](CCCNC(=N)N)NC(=O)[C@H](CCCNC(=N)N)NC(=O)CNC(=O)OC(C)(C)C)ccc12 [Boc-GRR-amc]
- K m [1]: 150 µM
- k cat [1]: 0.13 s⁻¹
- fold higher K m than Boc-LRR-amc [2]: 3 fold
- fold higher catalytic efficiency than Boc-LRR-amc [2]: about 10 fold
- K m [3]: 142 µM
- k cat [3]: 0.034 s⁻¹

Compound: CCCC[C@H](NC(=O)c1ccccc1)C(=O)N[C@@H](CCCCN)C(=O)N[C@@H](CCCNC(=N)N)C(=O)N[C@@H](CCCNC(=N)N)C(=O)Nc1ccc2c(C)cc(=O)oc2c1 [Bz-nKRR-amc] (Bz-[Nle]KRR-{AMC})
- fold higher k cat/K m of benzoyl compared to acetyl group (Ac-nKRR-amc) [2]: approximately 1.4 fold

Compound: [Cl-].[Na+] [NaCl]
- inhibition of cleavage of Pyr-RTKR-amc [4]: about 50%
- inhibition of the dengue virus NS3 protease [5]: 40–50%

Compound: Abz-(R)4SAGnY-amide
- k cat/K m [1]: 11087 M⁻¹ s⁻¹

Compound: Pyr-RTKR-amc
- K m [6]: 71 µM
- k cat [6]: 6.3 s⁻¹
- k cat/K m [6]: 88000 M⁻¹ s⁻¹
- k cat [1]: 0.02 s⁻¹ and 0.013 s⁻¹

Compound: aprotinin
- Ki [7]: 26 nM
- IC50 [8]: ~8000 nM and 7800 nM
- IC50 [9]: 4130 ± 170 nM
- Ki ([10]; WNV NS3 protease): 162 nM
- Ki ([10]; non-cleavable form of WNV NS2B-NS3pro): 26 nM

— PMC3352935, “Enzymatic Analysis of Recombinant Japanese Encephalitis Virus NS2B(H)-NS3pro Protease with Fluorogenic Model Peptide Substrates” (PLoS ONE, 2012)
